Measured values taken from patent US8778941B2, “TRPM8 antagonists and their use in treatments” (AMGEN Inc., priority 2011, dated 2014).

target: T1, human TRPM8 (Homo sapiens, UniProt Q7Z2W7); assay: Luminescence readout assay for measuring intracellular calcium (aequorin), hTRPM8 antagonism; type: cell-based; conditions: CHO cell line expressing human TRPM8 and aequorin; activation by icilin, L-menthol or cold buffer (table does not say which)
T1 construct: expressed in transfected cells; host or cells: Chinese hamster ovary (CHO) cells, T-REx tetracycline-inducible expression system (Invitrogen), co-transfected with pcDNA3.1 jellyfish aequorin
T1 sequence (Q7Z2W7 whole entry): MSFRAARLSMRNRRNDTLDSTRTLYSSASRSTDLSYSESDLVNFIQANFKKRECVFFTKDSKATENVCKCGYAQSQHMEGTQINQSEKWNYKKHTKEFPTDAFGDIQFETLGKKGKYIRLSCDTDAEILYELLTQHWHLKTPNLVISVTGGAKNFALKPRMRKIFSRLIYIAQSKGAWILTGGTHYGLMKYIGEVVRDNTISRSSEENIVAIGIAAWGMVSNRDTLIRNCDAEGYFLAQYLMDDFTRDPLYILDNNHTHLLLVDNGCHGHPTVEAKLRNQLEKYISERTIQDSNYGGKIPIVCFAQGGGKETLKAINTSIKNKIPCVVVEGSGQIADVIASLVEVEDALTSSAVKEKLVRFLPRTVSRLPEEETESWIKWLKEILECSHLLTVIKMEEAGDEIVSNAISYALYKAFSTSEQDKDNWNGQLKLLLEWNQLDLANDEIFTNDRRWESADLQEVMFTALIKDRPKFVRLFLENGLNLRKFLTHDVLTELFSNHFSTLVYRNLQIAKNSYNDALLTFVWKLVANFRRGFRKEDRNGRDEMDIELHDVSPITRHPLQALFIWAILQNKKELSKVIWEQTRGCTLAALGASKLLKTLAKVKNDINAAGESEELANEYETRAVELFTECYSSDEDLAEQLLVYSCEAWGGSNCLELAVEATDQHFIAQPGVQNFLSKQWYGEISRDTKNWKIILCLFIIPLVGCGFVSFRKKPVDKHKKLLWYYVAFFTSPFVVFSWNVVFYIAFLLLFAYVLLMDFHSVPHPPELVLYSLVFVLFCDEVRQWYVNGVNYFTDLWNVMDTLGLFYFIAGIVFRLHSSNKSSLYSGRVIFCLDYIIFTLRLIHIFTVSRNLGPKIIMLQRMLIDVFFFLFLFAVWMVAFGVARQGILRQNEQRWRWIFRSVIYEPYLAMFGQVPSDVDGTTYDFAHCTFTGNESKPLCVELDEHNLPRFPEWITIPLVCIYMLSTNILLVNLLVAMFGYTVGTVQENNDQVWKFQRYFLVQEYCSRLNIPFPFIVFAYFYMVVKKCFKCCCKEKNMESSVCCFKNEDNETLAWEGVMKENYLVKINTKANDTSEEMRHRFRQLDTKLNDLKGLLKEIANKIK
Experimental: Luminescence Readout Assay for Measuring Intracellular Calcium.
A stable Chinese hamster ovary cell line expressing human TRPM8 was generated using tetracycline inducible T-REx™ expression system from Invitrogen, Inc. (Carlsbad, Calif.). […] Twenty four hours before the assay, cells were seeded in 96-well plates and TRPM8 expression was induced with 0.5 μg/mL tetracycline. […] Potential antagonists were added 2.5 min prior to the addition of agonist, […], 100 µM L-menthol, or 1 min prior to the addition of cold buffer (<10° C.). The luminescence was measured by a CCD camera based FLASH-luminometer built by Amgen, Inc. A cooling device attached to FLASH luminometer was used for cold activation.

Structure (SMILES)	IC50
CC(C)(C)c1ccccc1NC(=O)N[C@@H](c1ccc(C(F)(F)F)cc1)c1ncccc1C(F)(F)F [Example 71, (S)-1-(tert-butylphenyl)-3-((4-(trifluoro-methyl)-phenyl)(3-(trifluoro-methyl)-pyridin-2-yl)-methyl)urea (2,2,2-trifluoro-acetate)]	5710 nM
CC#Cc1cccnc1[C@@H](NC(=O)N[C@@H](C)C(F)(F)F)c1ccc(C(F)(F)F)cc1 [Example 150, 1-((S)-(3-(prop-1-yn-1-yl)pyridin-2-yl)(4-(trifluoro-methyl)-phenyl)-methyl)-3-((S)-1,1,1-trifluoro-propan-2-yl)-urea]	48 nM
O=C(Nc1cccnc1)N[C@H](c1cccc(C(F)(F)F)c1)c1ccc(C(F)(F)F)c(F)c1 [Example 117, (R)-1-((3-fluoro-4-(trifluoro-methyl)-phenyl)(3-(trifluoro-methyl)-phenyl)-methyl)-3-(pyridin-3-yl)-urea (2,2,2-trifluoro-acetate)]	1750 nM
Cc1noc(C)c1NC(=O)N[C@@H](c1ccc(C(F)(F)F)cc1)c1ncccc1C(F)(F)F [Example 55, (S)-1-(3,5-dimethylisoxazol-4-yl)-3-((4-(trifluoro-methyl)-phenyl)(3-(trifluoro-methyl)-pyridin-2-yl)-metyl)urea]	50 nM
O=C(Nc1cccc2ncccc12)N[C@@H](c1ccc(C(F)(F)F)cc1)c1ncccc1C(F)(F)F [Example 179, (S)-1-(Quinolin-5-yl)-3-((4-(trifluoromethyl)phenyl)(3-(trifluoromethyl)pyridin-2-yl)methyl)urea]	77 nM
Cc1ccc([N+](=O)[O-])c(NC(=O)N[C@@H](c2ccc(C(F)(F)F)cc2)c2ncccc2C(F)(F)F)c1 [Example 143, (S)-1-(5-methyl-2-nitrophenyl)-3-((4-(trifluoro-methyl)-phenyl)(3-(trifluoro-methyl)-pyridin-2-yl)-methyl)urea (2,2,2-trifluoro-acetate)]	1300 nM
O=C1Cc2ccc(NC(=O)N[C@@H](c3ccc(C(F)(F)F)cc3)c3ncccc3F)cc2N1 [Example 166, (S)-1-((3-fluoropyridin-2-yl)(4-(trifluoro-methyl)-phenyl)-methyl)-3-(2-oxoindolin-6-yl)urea]	86 nM
O=C1Cc2cc(NC(=O)N[C@@H](c3ccc(C(F)(F)F)cc3)c3ncccc3F)ccc2N1 [Example 149]	55 nM
O=C(Nc1cc[nH]c(=O)c1)N[C@@H](c1ccc(C(F)(F)F)cc1)c1ncccc1F [Example 164, (S)-1-((3-fluoropyridin-2-yl)(4-(trifluoro-methyl)-phenyl)-methyl)-3-(2-oxo-1,2-dihydropyridin-4-yl)urea]	2880 nM
CC(C)NC(=O)N[C@@H](c1ccc(C(F)(F)F)cc1)c1ncccc1C(F)(F)F [Example 32, (S)-1-isopropyl-3-((4-(trifluoro-methyl)-phenyl)(3-(trifluoro-methyl)-pyridin-2-yl)-methyl)urea]	66 nM
COc1cccc([C@H](C)NC(=O)N[C@@H](c2ccc(C(F)(F)F)cc2)c2ncccc2C(F)(F)F)c1 [Example 84, 1-((S)-1-(3-methoxy-phenyl)ethyl)-3-((S)-(4-(trifluoro-methyl)-phenyl)(3-(trifluoro-methyl)-pyridin-2-yl)-methyl)urea (2,2,2-trifluoro-acetate)]	767 nM
O=C(Nc1c(Br)cc(F)cc1Br)N[C@@H](c1ccc(C(F)(F)F)cc1)c1ncccc1C(F)(F)F [Example 63, (S)-1-(2,6-dibromo-4-fluorophenyl)-3-((4-(trifluoro-methyl)-phenyl)(3-(trifluoro-methyl)-pyridin-2-yl)-methyl)urea (2,2,2-trifluoro-acetate)]	866 nM
O=C(NC1CCN(C(=O)OCc2ccccc2)CC1)N[C@@H](c1ccc(C(F)(F)F)cc1)c1ncccc1C(F)(F)F [Example 75, (S)-benzyl 4-(3-((4-(trifluoro-methyl)-phenyl)(3-(trifluoro-methyl)-pyridin-2-yl)-methyl)-ureido)-piperidine-1-carboxylate (2,2,2-trifluoro-acetate)]	670 nM
O=C(Nc1ccc(C(=O)O)cc1)N[C@@H](c1ccc(OC(F)(F)F)c(F)c1)c1ncccc1F [Example 180, (S)-4-(3-((3-Fluoro-4-(trifluoromethoxy)phenyl)(3-fluoropyridin-2-yl)methyl)ureido)benzoic acid]	3240 nM
Cc1ccccc1CNC(=O)N[C@@H](c1ccc(C(F)(F)F)cc1)c1ncccc1C(F)(F)F [Example 85, (S)-1-(2-methylbenzyl)-3-((4-(trifluoro-methyl)-phenyl)(3-(trifluoro-methyl)-pyridin-2-yl)-methyl)urea (2,2,2-trifluoro-acetate)]	405 nM
O=C(NC1CCCc2ccccc21)N[C@@H](c1ccc(C(F)(F)F)cc1)c1ncccc1C(F)(F)F (stereo partly drawn) [Example 185, 1-(1,2,3,4-tetrahydro-naphthalen-1-yl)-3-((S)-(4-(trifluoromethyl)phenyl)(3-(trifluoromethyl)pyridin-2-yl)methyl)urea (2,2,2-trifluoro-acetate)]	739 nM
COC(=O)[C@H](C)NC(=O)N[C@@H](c1ccc(C(F)(F)F)cc1)c1ncccc1C(F)(F)F [Example 79, (S)-methyl-2-(3-((S)-(4-(trifluoro-methyl)-phenyl)(3-(trifluoro-methyl)-pyridin-2-yl)-methyl)-ureido)-propanoate (2,2,2-trifluoro-acetate)]	1500 nM
COc1ccc(CCNC(=O)N[C@@H](c2ccc(C(F)(F)F)cc2)c2ncccc2C(F)(F)F)cc1OC [Example 95, (S)-1-(3,4-dimethoxy-phenethyl)-3-((4-(trifluoro-methyl)-phenyl)(3-(trifluoro-methyl)-pyridin-2-yl)-methyyl)urea (2,2,2-trifluoro-acetate)]	1920 nM
CCc1ccc([C@H](NC(=O)Nc2cccnc2)c2ncccc2C(F)(F)F)cc1 [Example 27, (S)-1-((4-ethylphenyl)-(3-(trifluoro-methyl)-pyridin-2-yl)-methyl)-3-(pyridin-3-yl)-urea]	41 nM
O=C(Nc1cccnc1)N[C@@H](c1cnc2ccccc2c1)c1ncccc1C(F)(F)F [Example 6, (S)-1-(pyridin-3-yl)-3-(quinolin-3-yl(3-(trifluoro-methyl)-pyridin-2-yl)-methyl)urea]	259 nM
O=C(Nc1cc(F)cc(F)c1)N[C@@H](c1ccc(C(F)(F)F)cc1)c1ncccc1C(F)(F)F [Example 49, (S)-1-(3,5-difluoro-phenyl)-3-((4-(trifluoro-methyl)-phenyl)(3-(trifluoro-methyl)-pyridin-2-yul)-methyl)urea]	558 nM
C=CCc1cccnc1[C@@H](NC(=O)N[C@@H](C)C(F)(F)F)c1ccc(C(F)(F)F)cc1 [Example 158, 1-((S)-(3-allylpyridin-2-yl)(4-(trifluoro-methyl)-phenyl)-methyl)-3-((S)-1,1,1-trifluoro-propan-2-yl)-urea]	28 nM
O=C(NCc1ccccc1F)N[C@@H](c1ccc(C(F)(F)F)cc1)c1ncccc1C(F)(F)F [Example 87, (S)-1-(2-fluorobenzyl)-3-((4-(trifluoro-methyl)-phenyl)(3-(trifluoro-methyl)-pyridin-2-yl)-methyl)urea (2,2,2-trifluoro-acetate)]	199 nM
O=C(NCCc1c(Cl)cccc1Cl)N[C@@H](c1ccc(C(F)(F)F)cc1)c1ncccc1C(F)(F)F [Example 132, (S)-1-(2,6-dichlorophen-ethyl)-3-((4-(trifluoro-methyl)-phenyl)(3-(trifluoro-methyl)-pyridin-2-yl)-methyl)urea (2,2,2-trifluoro-acetate)]	673 nM
COc1cc(NC(=O)N[C@@H](c2ccc(C(F)(F)F)cc2)c2ncccc2C(F)(F)F)cc(OC)c1OC [Example 112, (S)-1-((4-(trifluoro-methyl)-phenyl)(3-(trifluoro-methyl)-pyridin-2-yl)-methyl)-3-(3,4,5-trimethoxy-phenyl)urea (2,2,2-trifluoro-acetate)]	287 nM
COc1cc([N+](=O)[O-])ccc1NC(=O)N[C@@H](c1ccc(C(F)(F)F)cc1)c1ncccc1C(F)(F)F [Example 141, (S)-1-(2-methoxy-4-nitrophenyl)-3-((4-(trifluoro-methyl)-phenyl)(3-(trifluoro-methyl)-pyridin-2-yl)-methyl)urea (2,2,2-trifluoro-acetate)]	360 nM
COc1ccc([C@H](NC(=O)Nc2cccnc2)c2ncccc2C(F)(F)F)cc1 [Example 2, (S)-1-((4-methoxy-phenyl)(3-(trifluoro-methyl)-pyridin-2-yl)-methyl)-3-(pyridin-3-yl)-urea]	230 nM
COc1cccc(NC(=O)N[C@@H](c2ccc(C(F)(F)F)cc2)c2ncccc2C(F)(F)F)c1 [Example 52, (S)-1-(3-methoxy-phenyl)-3-((4-(trifluoro-methyl)-phenyl)(3-(trifluoro-methyl)-pyridin-2-yl)-methyl)urea (2,2,2-trifluoro-acetate)]	61 nM
O=C(Nc1cccnc1)NC(c1cc(F)cc(Cl)c1)c1ncccc1F (stereo not drawn) [Example 24, 1-((3-chloro-5-fluoro-phenyl)(3-fluoropyridin-2-yl)methyl)-3-(pyridin-3-yl)urea (2,2,2-trifluoro-acetate)]	674 nM
O=C(Nc1cccnc1)N[C@@H](c1ccc(C(F)(F)F)cc1)c1cnccc1C(F)(F)F [Example 119, (S)-1-(pyridin-3-yl)-3-((4-(trifluoro-methyl)-phenyl)(4-(trifluoro-methyl)-pyridin-3-yl)-methyl)urea bis(2,2,2-trifluoro-acetate)]	375 nM
